Measurements: US10226452B2, “Benzoxazolone derivatives as acid ceramidase inhibitors, and their use as medicaments” (FONDAZIONE ISTITUTO ITALIANO DI TECNOLOGIA, priority 2014, dated 2019)

Columns and labels:
AC [1] = target: T1, AC (Mus musculus (Mouse), UniProt Q9WV54); experiment: AC activity ex vivo in mouse tissues after systemic administration; details: mice
Protocol: Specifically, it is evidences the effects of compound of Example 7 or vehicle (15% polyethylene glycol, 15% Tween80, 70% saline) on AC activity in mouse lungs. AC activity measured ex vivo 30 minutes or 3 hours after intraperitoneal injection of compound of Example 7 (10 mg-kg^−1). Results are expressed as mean±s.e.m. (n=6). ***p<0.001 vs vehicle, one-way ANOVA followed by Dunnet.
Specifically, FIG. 7 illustrates the effects of compound of Example 25 or vehicle (15% polyethylene glycol, 15% Tween80, 70% saline) on AC activity in mouse lungs (oral administration, A) or cerebral cortex (intraperitoneal administration, B) and on ceramide levels (C and D). Results are expressed as mean±s.e.m. (n=6). *p<0.05, **p<0.01, ***p<0.001 vs vehicle, one-way ANOVA followed by Dunnet.
hAC protein preparation (10 μg) was preincubated with inhibitors (final DMSO concentration 1%) in assay buffer (100 mM sodium phosphate, 0.1% Nonidet P-40, 150 mM NaCl, 3 mM DTT, 100 mM sodium citrate, pH 4.5) for 30 min at 37° C. Reactions were started by the addition of 50 μM N-lauroyl ceramide (Nu-Chek Prep, Elysian, Minn.) and carried on for 30 min at 37° C. Reactions were stopped by addition of a mixture of chloroform/methanol (2:1, vol/vol) containing 1 nmol 11-lauroleic acid (NuChek Prep). The organic phases were collected, dried under nitrogen and analyzed by UPLC/MS (Acquity, Waters). In the negative-ion mode monitoring the reaction product (lauric acid, m/z=199) using 11-lauroleic acid as internal standard.

AC [2] = target: AC (Homo sapiens (Human), UniProt Q13510); experiment: AC activity in MeWo human melanoma cells; format: cell-based; details: 25 μM, evident at 30 minutes, lasted up to 3 hours
Protocol: Specifically, FIG. 1 evidences the effects of compound of Example 7 or vehicle (0.1% DMSO in DMEM) on AC activity and ceramide levels in A375 (left panel) or MeWo (right panel) human melanoma cell lines. (A-B) Intact cells were treated with compound of Example 7 (25 μM) or vehicle and AC activity was measured 30 minutes or 3 hours later in cell lysates. (B) Intact cells were exposed to compound of Example 7 (25 μM) for 2 hours or 24 hours and medium chain ceramides (C-D), long chain ceramides (E-F) and dihydroceramides (G-H) were quantified. Results are expressed as mean±s.e.m. (n=3). *p<0.05, **p<0.01, ***p<0.001 vs vehicle, two-way ANOVA followed by Dunnet.
(§1) hAC protein preparation (10 μg) was preincubated with inhibitors (final DMSO concentration 1%) in assay buffer (100 mM sodium phosphate, 0.1% Nonidet P-40, 150 mM NaCl, 3 mM DTT, 100 mM sodium citrate, pH 4.5) for 30 min at 37° C. Reactions were started by the addition of 50 μM N-lauroyl ceramide (Nu-Chek Prep, Elysian, Minn.) and carried on for 30 min at 37° C. […] The organic phases were collected, dried under nitrogen and analyzed by UPLC/MS (Acquity, Waters). […]
(§2) The [M−H]^− ion was monitored in the selected-ion monitoring mode (m/z values: lauric acid 199, 11-lauroleic acid 197.35). […] Inhibition of AC activity was calculated as reduction of lauric acid in the samples compared to vehicle controls. […]

AC [3] = target: T1, AC; experiment: AC activity in RAW264.7 murine cell line; format: cell-based; details: Raw264.7 cells; 0.1-20 μM; 3 hours
Protocol: Specifically it is reported the concentration response of compound of Example 25 or vehicle (0.1% DMSO in DMEM) on AC activity and ceramide levels in RAW264.7 murine cell line. (A) Intact cells were treated with compound of Example 25 (0.1-20 μM) or vehicle and AC activity was measured 3 hours later in cell lysates. (B-E) Intact cells were exposed to compound of Example 25 (0.1-20 μM) for 3 hours and sphingosine/sphinganine (B), dihydroceramides (C), medium chain ceramides (D), long chain ceramides (E) were quantified. Results are expressed as mean±s.e.m. (n=3). *p<0.05, **p<0.01, ***p<0.001 vs vehicle, two-way ANOVA followed by Dunnet.
as §1, §2

MMP-2 (h) = MMP-2 (h) (Homo sapiens (Human), UniProt P08253); experiment: Cerep enzyme inhibition screen: MMP-2; format: biochemical; details: mean of two determinations, read-out: Inhibitory activity (% Inh. at 10 μM), mean
Excerpt: (§3) Compound of Example 25 falling in both Formula (I) and (Ia) was selected to be tested for off-target effects on a set of enzymes that include proteases (aspartic, cysteine, and serine), cyclooxygenases as well as lipoxygenases and group IV phospholipase (sPLA2) (Table 3). [table]

caspase-8 (h) = caspase-8 (h) (Homo sapiens (Human), UniProt Q14790); experiment: Cerep enzyme inhibition screen: caspase-8; format: biochemical; details: mean of two determinations, read-out: Inhibitory activity (% Inh. at 10 μM), mean
Excerpt: as §3

MAG levels = MAG levels in mouse tissues; format: in vivo; details: mice; 10 mg-kg-1 intraperitoneal; after 3 hours
Protocol: Specifically, the levels of MAGs were quantified after 3 hours after intraperitoneal injection of compound of Example 25 (10 mg-kg-1). Specifically, levels of 16:0 MAG, 18:0 MAG, 18:1 MAG, 22:4 MAG, 22:6 MAG were measured in the brain (a); levels of 16:0 MAG, 18:0 MAG, 18:1 MAG, 22:4 MAG were measured in the liver (b), in fat (c) and in the heart (d). Results are expressed as mean±s.e.m. (n=5).
We homogenized tissue samples (20-30 mg) in methanol (1 mL) containing deuterium-labeled 2-AG (500 pmol) as internal standard (Cayman, Ann Arbor, Mich.). We extracted lipids with chloroform (2 mL) and water (1 mL). The organic phases were dried in a stream of N2, reconstituted in chloroform (2 mL) and fractionated by open-bed silica gel column chromatography as described. The eluded fraction containing 2-AG and anandamide were dried under N2, and residues were suspended in chloroform/methanol (1:3, vol:vol; 100 μL). Analyses were conducted using a liquid chromatography mass spectrometry (LC-MS) apparatus consisting of an Agilent 1100 system and 1946D mass spectrometer detector equipped with ESI interface (Agilent Technologies, Santa Clara, Calif., USA).

T1 sequence (Q9WV54 19-141): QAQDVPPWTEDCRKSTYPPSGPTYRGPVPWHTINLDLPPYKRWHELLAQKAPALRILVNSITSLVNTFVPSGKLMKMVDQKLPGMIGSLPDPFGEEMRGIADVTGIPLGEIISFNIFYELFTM
T1 sequence (Q9WV54 142-394): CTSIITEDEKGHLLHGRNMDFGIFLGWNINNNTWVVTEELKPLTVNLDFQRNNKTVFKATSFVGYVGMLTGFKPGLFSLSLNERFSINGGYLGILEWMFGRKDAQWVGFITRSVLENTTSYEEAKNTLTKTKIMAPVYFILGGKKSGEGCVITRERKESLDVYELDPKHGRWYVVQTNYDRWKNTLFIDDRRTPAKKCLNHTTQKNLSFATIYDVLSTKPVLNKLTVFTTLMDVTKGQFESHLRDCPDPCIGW
Sequence of caspase-8 (h) (Q14790 217-374): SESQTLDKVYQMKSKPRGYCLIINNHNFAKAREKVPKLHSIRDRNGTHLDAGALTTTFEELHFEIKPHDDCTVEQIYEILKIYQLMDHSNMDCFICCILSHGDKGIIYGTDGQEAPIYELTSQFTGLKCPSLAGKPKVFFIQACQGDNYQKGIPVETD
Sequence of caspase-8 (h) (Q14790 385-479): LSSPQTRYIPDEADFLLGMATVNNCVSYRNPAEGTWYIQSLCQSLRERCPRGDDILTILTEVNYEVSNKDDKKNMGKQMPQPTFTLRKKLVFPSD
Sequence of AC (Homo sapiens (Human), UniProt Q13510) (Q13510 22-142): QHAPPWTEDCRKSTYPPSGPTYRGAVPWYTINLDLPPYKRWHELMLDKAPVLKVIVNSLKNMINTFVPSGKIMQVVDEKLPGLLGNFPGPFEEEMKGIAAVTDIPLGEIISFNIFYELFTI
Sequence of AC (Homo sapiens (Human), UniProt Q13510) (Q13510 143-395): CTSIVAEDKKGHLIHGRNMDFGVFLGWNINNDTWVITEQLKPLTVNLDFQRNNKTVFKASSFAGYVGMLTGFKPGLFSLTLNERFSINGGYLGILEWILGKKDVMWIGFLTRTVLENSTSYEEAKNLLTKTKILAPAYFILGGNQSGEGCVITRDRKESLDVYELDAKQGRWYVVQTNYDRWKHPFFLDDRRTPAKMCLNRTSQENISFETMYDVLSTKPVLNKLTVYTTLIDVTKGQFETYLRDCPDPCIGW
Sequence of MMP-2 (h) (P08253 110-660): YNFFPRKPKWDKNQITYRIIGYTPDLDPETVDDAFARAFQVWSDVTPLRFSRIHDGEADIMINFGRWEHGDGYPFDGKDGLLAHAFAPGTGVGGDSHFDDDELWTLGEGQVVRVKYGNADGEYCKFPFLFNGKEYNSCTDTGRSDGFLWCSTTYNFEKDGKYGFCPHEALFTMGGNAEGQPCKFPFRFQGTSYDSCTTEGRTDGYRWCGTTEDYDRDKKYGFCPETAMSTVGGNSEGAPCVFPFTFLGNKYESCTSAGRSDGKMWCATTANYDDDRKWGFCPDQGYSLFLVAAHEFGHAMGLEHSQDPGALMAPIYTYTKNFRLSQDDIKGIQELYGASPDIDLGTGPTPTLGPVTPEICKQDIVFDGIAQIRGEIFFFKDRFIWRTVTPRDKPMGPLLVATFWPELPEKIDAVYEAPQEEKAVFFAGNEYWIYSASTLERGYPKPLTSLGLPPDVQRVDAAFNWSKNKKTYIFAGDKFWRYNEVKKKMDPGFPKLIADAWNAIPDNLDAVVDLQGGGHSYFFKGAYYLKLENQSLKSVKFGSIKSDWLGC

| SMILES | AC activity in lungs (AC [1]; 10 mg-kg^−1 intraperitoneal, after 30 minutes or 3 hours) | AC activity (AC [2]) | AC activity in lungs (AC [1]; 3 or 10 mg-kg^−1, intraperitoneal or oral (FIG. 7A oral)) | AC activity in brain cortex (AC [1]; 3 or 10 mg-kg^−1, intraperitoneal or oral (FIG. 7B intraperitoneal)) | AC activity (AC [3]) | inhibition at 10 µM (MMP-2 (h)) | inhibition at 10 µM (caspase-8 (h)) | levels of the most representative MAGs in brain, liver, fat and heart (MAG levels) |
| --- | --- | --- | --- | --- | --- | --- | --- | --- |
| O=C(NCCCCc1ccccc1)n1c(=O)oc2cc(Br)ccc21 [Example 7, 6-Bromo-2-oxo-N-(4-phenylbutyl)-1,3-benzoxazole-3-carboxamide] | time-dependent inhibition of AC activity in lungs | reduction in AC activity | – | – | – | – | – | – |
| O=C(NCCCCc1ccccc1)n1c(=O)oc2cc(-c3ccc(F)cc3)ccc21 [Example 25, 6-(4-Fluorophenyl)-2-oxo-N-(4-phenylbutyl)-1,3-benzoxazole-3-carboxamide] | – | – | time and dose-dependent inhibition of AC activity | time and dose-dependent inhibition of AC activity | concentration dependent reduction in AC activity | 7.2% | -0.9% | remained unchanged |
